Our source for the IC50 values is patent US8440652B2, “MST1 kinase inhibitors and methods of their use” (Lexicon Pharmaceuticals, Inc., priority 2011, dated 2013).

The target of this assay is T1, MST1 (Homo sapiens, UniProt Q13043).
T1 sequence (Q13043 1-487): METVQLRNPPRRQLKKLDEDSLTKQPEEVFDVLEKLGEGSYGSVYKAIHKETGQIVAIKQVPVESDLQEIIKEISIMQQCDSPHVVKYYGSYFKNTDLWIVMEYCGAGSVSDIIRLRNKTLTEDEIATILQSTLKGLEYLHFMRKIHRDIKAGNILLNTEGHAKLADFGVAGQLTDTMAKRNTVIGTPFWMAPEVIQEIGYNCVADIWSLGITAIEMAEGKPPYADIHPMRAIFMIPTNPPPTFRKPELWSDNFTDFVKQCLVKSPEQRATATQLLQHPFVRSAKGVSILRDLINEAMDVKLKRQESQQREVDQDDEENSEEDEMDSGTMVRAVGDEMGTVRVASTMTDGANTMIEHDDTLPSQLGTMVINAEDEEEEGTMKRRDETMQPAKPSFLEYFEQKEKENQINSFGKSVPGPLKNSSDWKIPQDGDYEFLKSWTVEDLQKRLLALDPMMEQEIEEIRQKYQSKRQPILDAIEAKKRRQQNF
In words: In vitro measurement of MST1 inhibition (Z′-Lyte kinase assay). Format: biochemical. How it is done: Assays were performed in low-volume 384-well black proxiplates (Perkin Elmer, PE-Blk-Proxi-6008269). Eight compounds were first diluted into LDV (Echo) plates using a Multiprobe, at a starting concentration of 1 mM compound in 100% DMSO. Using the ECHO, 75 nl compound was pinged into 384-well proxiplates. The starting concentration of compound in each assay plate is 7.5 uM, followed by 3-fold dilutions, to give quadruplicate ten-point concentration curves. A 3× solution of MST1 enzyme in kinase buffer (Invitrogen, PR4940C) was added to wells containing compound or DMSO controls, followed by a 10 minute preincubation step. Reactions were initiated by adding 5 μL of a mixture of ATP and Z′-Lyte S/T Pep 7 (Invitrogen, PV3180) and proceeded at RT for 1 hour. […] At the end of the kinase reaction, 10 ul of developing solution (Invitrogen, catalog #PR4876B; development buffer A diluted […] in development buffer B) was added to each well and incubated at RT for 1 hr. All wells were read on a Tecan at 400 nm excitation and 460 nm/530 nm emission. Plus and minus enzyme controls were used to calculate percent inhibition and IC50 curves were generated using Excel.

[1] abbreviates: 1 μM ATP, read-out: IC50 (μM) 1 μM ATP.
Where [2] appears, read: 50 μM ATP, read-out: IC50 (μM) 50 μM ATP.

Like-named read-outs stand apart in the source and are kept apart here. A value given as a limit tells only on which side of the number the result lay.

A word on the IC50: it is the concentration that inhibits the measured activity by half.

For the compound `Nc1ncc(-c2ccc(S(=O)(=O)NC3CC3)cc2)nc1-c1ccc2c(c1)OCCNC2=O` [4-(5-amino-6-(5-oxo-2,3,4,5-tetrahydrobenzo[f][1,4]oxazepin-8-yl)pyrazin-2-yl)-N-cyclopropylbenzenesulfonamide], the IC50 is under 0.01 µM under setting [1] and under 0.01 µM under setting [2].

Regarding `CCN(CC)S(=O)(=O)c1ccc(-c2cnc(N)c(-c3ccc(C(N)=O)cn3)c2)cc1` [2′-amino-5′-(4-(N,N-diethylsulfamoyl)phenyl)-[2,3′-bipyridine]-5-carboxamide], the IC50 runs as follows: under setting [1], under 0.05 µM; under setting [2], under 0.01 µM.

Turning to `CCN(C)S(=O)(=O)c1ccc(-c2cnc(N)c(-c3ccc4c(c3)CCNC4=O)n2)cc1C` [4-(5-amino-6-(1-oxo-1,2,3,4-tetrahydroisoquinolin-6-yl)pyrazin-2-yl)-N-ethyl-N,2-dimethylbenzenesulfonamide], the IC50 reads like this: under setting [1], under 0.01 µM; under setting [2], under 0.01 µM.

With `C[C@H]1CNc2cc(-c3nc(-c4ccc(S(=O)(=O)N(C)C5CC5)cc4)cnc3N)ccc2C(=O)N1` [(S)-4-(5-amino-6-(3-methyl-5-oxo-2,3,4,5-tetrahydro-1H-benzo[e][1,4]diazepin-8-yl)pyrazin-2-yl)-N-cyclopropyl-N-methylbenzenesulfonamide], the IC50 is under 0.01 µM under setting [1] and under 0.01 µM under setting [2].

Take `Nc1ncc(-c2ccc(S(=O)(=O)NC3CC3)cc2)nc1-c1ccc2c(c1)C1(CC1)CNC2=O` [4-(5-amino-6-(1′-oxo-2′,3′-dihydro-1′H-spiro[cyclopropane-1,4′-isoquinolin]-6′-yl)pyrazin-2-yl)-N-cyclopropylbenzenesulfonamide]: the IC50 under setting [1] is under 0.01 µM and the IC50 under setting [2] is under 0.01 µM.

On to `NC(=O)c1ccc(-c2cc(-c3ccc(S(N)(=O)=O)cc3)cnc2N)cc1` [4-(2-amino-5-(4-sulfamoylphenyl)pyridin-3-yl)benzamide], for which the IC50 under setting [2] was under 0.15 µM.

In the case of `Nc1ncc(-c2ccc(C(=O)NCC(F)(F)F)s2)cc1-c1ccc2c(c1)CCNC2=O` [5-(6-amino-5-(1-oxo-1,2,3,4-tetrahydroisoquinolin-6-yl)pyridin-3-yl)-N-(2,2,2-trifluoroethyl)thiophene-2-carboxamide], the IC50 under setting [1] is under 0.15 µM and the IC50 under setting [2] was under 0.05 µM.

Consider `CCN(C)S(=O)(=O)c1ccc(-c2cnc(N)c(-c3ccc4c(c3)CCCNC4=O)n2)cc1` [4-(5-amino-6-(1-oxo-2,3,4,5-tetrahydro-1H-benzo[c]azepin-7-yl)pyrazin-2-yl)-N-ethyl-N-methylbenzenesulfonamide], for which the IC50 reads like this: under setting [1], under 0.05 µM; under setting [2], under 0.01 µM.

In the case of `CN(C1CC1)S(=O)(=O)c1ccc(-c2cnc(N)c(C#Cc3ccnc(O)c3)n2)cc1` [4-(5-amino-6-((2-hydroxypyridin-4-yl)ethynyl)pyrazin-2-yl)-N-cyclopropyl-N-methylbenzenesulfonamide], the IC50 under setting [1] is under 0.15 µM and the IC50 under setting [2] is under 0.05 µM.

Turning to `Nc1ncc(-c2ccc(F)cc2)nc1-c1ccc2c(c1)C1(CC1)CNC2=O` [6′-(3-amino-6-(4-fluorophenyl)pyrazin-2-yl)-2′,3′-dihydro-1′H-spiro[cyclopropane-1,4′-isoquinolin]-1′-one], the IC50 is under 0.15 µM under setting [1] and under 0.01 µM under setting [2].

Turning to `Nc1ncc(-c2ccc(S(=O)(=O)NC3CC3)cc2)cc1-c1ccc2c(c1)CCCNC2=O` [4-(6-amino-5-(1-oxo-2,3,4,5-tetrahydro-1H-benzo[c]azepin-7-yl)pyridin-3-yl)-N-cyclopropylbenzenesulfonamide], the IC50 under setting [1] was under 0.01 µM and the IC50 under setting [2] is under 0.01 µM.

In the case of `Cc1ccc(-c2cnc(N)c(-c3ccc4c(c3)CCNC4=O)c2)s1` [6-(2-amino-5-(5-methylthiophen-2-yl)pyridin-3-yl)-3,4-dihydroisoquinolin-1(2H)-one], the IC50 was under 0.05 µM under setting [1] and under 0.01 µM under setting [2].

With `N#CC1CC1c1ccc(-c2cnc(N)c(-c3ccc4c(c3)CCNC4=O)n2)cc1` (stereo not shown) [2-(4-(5-amino-6-(1-oxo-1,2,3,4-tetrahydroisoquinolin-6-yl)pyrazin-2-yl)phenyl)cyclopropanecarbonitrile], the IC50 under setting [1] was under 0.05 µM and the IC50 under setting [2] was under 0.01 µM.
